Data: PMC8580050, “Improvement of the antimicrobial potency, pharmacokinetic and pharmacodynamic properties of albicidin by incorporation of nitrogen atoms” (Chemical Science, 2021)
≈ marks a conversion by molar mass, not a printed value. Like-named read-outs stand apart in the source and are kept apart here.

Assays:
DNA gyrase = conditions: read-out: half maximum inhibitory concentration (IC50); cited from earlier work
[1] = system: A. baumannii (ciprofloxacin resistant isolate); test: microbe, parasite or virus in culture; format: cell-based, Acinetobacter baumannii; conditions: Acinetobacter baumannii
Protocol: (§1) 1.1.1 In vitro experiments
(§2) Determination of Minimal inhibitory concentrations (MIC)
(§3) Approved Standard M07-A9.1
(§4) CFU mL-1. […] Albicidin and […]
(§5) and serially diluted in DMSO (100%). […]
(§6) in 0.1 N HCL, respectively.
(§7) One row of each well plate served as a […]
(§8) sterility control (only MHB II-media). […]
(§9) adding 5 µL DMSO to several wells. […]
(§10) for growth inhibition by naked eye.
(§11) Microorganisms and Cell Cultures (DSMZ): […]
(§12) Dr. Werner (Robert-Koch-Institut, Wernigerode, Germany): […]
(§13) for the following 11 pathogenic isolates: […]

[2] = system: E. faecium (ciprofloxacin susceptible clinical isolate); test: microbe, parasite or virus in culture; conditions: Enterococcus faecium
[3] = system: Salmonella Kentucky (ciprofloxacin resistant clinical isolate); test: microbe, parasite or virus in culture; format: cell-based; conditions: Salmonella enterica
Protocol: as §1, §2, §3, §4, §5, §6, §7, §8, §9, §10, §11, §12

[4] = system: K. pneumoniae (ciprofloxacin resistant clinical isolate); test: microbe, parasite or virus in culture; format: cell-based; conditions: Klebsiella pneumoniae
Protocol: as §1, §2, §3, §4, §5, §6, §7, §8, §9, §10, §11, §12

[5] = system: P. aeruginosa (ciprofloxacin susceptible clinical isolate); test: MIC, extended panel; format: cell-based, Pseudomonas aeruginosa; conditions: Pseudomonas aeruginosa
Protocol: as §1, §2, §3, §4, §5, §6, §7, §8, §9, §10, §11, §12, §13

[6] = system: S. aureus (ciprofloxacin resistant clinical isolate); test: microbe, parasite or virus in culture; format: cell-based, Staphylococcus aureus; conditions: Staphylococcus aureus
Protocol: as §1, §2, §3, §4, §5, §6, §7, §8, §9, §10, §11, §12, §13

[7] = system: E. faecium (ciprofloxacin resistant clinical isolate); test: microbe, parasite or virus in culture; format: cell-based; conditions: Enterococcus faecium
Protocol: as §1, §2, §3, §4, §5, §6, §7, §8, §9, §10, §11, §12, §13

[8] = system: P. aeruginosa (ciprofloxacin resistant clinical isolate); test: microbe, parasite or virus in culture; format: cell-based; conditions: Pseudomonas aeruginosa
Protocol: as §1, §2, §3, §4, §5, §6, §7, §8, §9, §10, §11, §12, §13

[9] = system: K. pneumoniae (ciprofloxacin susceptible clinical isolate); test: MIC, extended panel; format: cell-based, Klebsiella pneumoniae; conditions: Klebsiella pneumoniae
Protocol: as §1, §2, §3, §4, §5, §6, §7, §8, §9, §10, §11, §12

[10] = system: Salmonella Kentucky (ciprofloxacin susceptible clinical isolate); test: MIC, extended panel; format: cell-based; conditions: Salmonella enterica
Protocol: as §1, §2, §3, §4, §5, §6, §7, §8, §9, §10, §11, §12

[11] = system: E. coli (ciprofloxacin susceptible clinical isolate); test: MIC, extended panel; format: cell-based; conditions: Escherichia coli
Protocol: as §1, §2, §3, §4, §5, §6, §7, §8, §9, §10, §11, §12

in vitro = conditions: plasma, pH 7.4
Protocol: Determination of plasma stability
Human and murine plasma aliquots (Sigma-Aldrich, Taufkirchen, Germany) were thawed and subsequently centrifuged at 3000 rpm for 10 min at 4°C. Resulting supernatant was diluted in the same volume of phosphate buffer (pH 7.4) to obtain a plasma concentration of 50% (v/v). Stock solutions of […]
concentration of 20 µM (5% DMSO). Following incubation at 37°C ice-cold methanol containing 30% […]
were centrifuged at 4000 rpm for 20 min at 4°C and 100 µL of supernatant were directly transferred to a fresh MS-vial. Samples were analyzed by LC/MS-MS experiments. Quantification of remaining compounds was performed by an external calibration curve of standard solutions in the range of […]

physchem = conditions: 20 °C, kinetic from dmso stock
[12] = system: S. aureus (ciprofloxacin susceptible clinical isolate); test: MIC, extended panel; format: cell-based; conditions: Staphylococcus aureus
Protocol: as §1, §2, §3, §4, §5, §6, §7, §8, §9, §10, §11, §12, §13

[13] = system: E. coli (ciprofloxacin resistant clinical isolate); test: microbe, parasite or virus in culture; format: cell-based, Escherichia coli; conditions: Escherichia coli
Protocol: as §1, §2, §3, §4, §5, §6, §7, §8, §9, §10, §11, §12

M. luteus DSM1790 = test: MIC determination (broth microdilution); format: cell-based, Micrococcus luteus; conditions: Micrococcus luteus; M. luteus DSM1790; read-out: MIC
Protocol: as §1, §2, §3, §4, §5, §6, §7, §8, §9, §10, §11

E. coli DNA gyrase = biological target: T1, E. coli DNA gyrase (Escherichia coli, UniProt P0AES4+P0AES6); test: E. coli gyrase supercoiling inhibition assay; format: biochemical; parameters: key: ↑: for stronger inhibition; ≈: for equal inhibition; ↓: for diminished inhibition compared to albicidin 1; conditions: constant concentration of 45 nM, compared to albicidin 1
T1 construct: purchased inspiralis Limited, Norwich, UK
Protocol: Escherichia coli Gyrase Supercoiling Inhibition Assay
loaded on an agarose gel.
2-15. […] Addition of DNA
All derivatives were tested at a concentration of […]

[14] = system: E. coli DSM 1116 + 50% Human Serum; test: MIC determination in presence of 50% human serum; format: cell-based; conditions: Escherichia coli, DSM1116; E. coli DSM 1116 + 50% Human Serum; read-out: MIC
Description: This investigation was completed by assessment of the antibacterial activity in presence of human plasma (50%) (Table 1), since high plasma protein binding can severely impair antibacterial activity and thus efficacy.
as §1, §2, §3, §4, §5, §6, §7, §8, §9, §10, §11

S. Typhimurium TA100 = test: MIC determination (broth microdilution); format: cell-based, Salmonella typhimurium; conditions: Salmonella enterica; S. Typhimurium TA100; read-out: MIC
Protocol: as §1, §2, §3, §4, §5, §6, §7, §8, §9, §10, §11

B. subtilis DSM 10 = test: MIC determination (broth microdilution); format: cell-based; conditions: Bacillus subtilis, DSM10; B. subtilis DSM 10; read-out: MIC
Protocol: as §1, §2, §3, §4, §5, §6, §7, §8, §9, §10, §11

E. coli BW25113 = test: MIC determination (broth microdilution); format: cell-based; conditions: Escherichia coli
Protocol: as §1, §2, §3, §4, §5, §6, §7, §8, §9, §10, §11

E. coli DSM 1116 = test: MIC determination (broth microdilution); format: cell-based, Escherichia coli; conditions: Escherichia coli, DSM1116
Protocol: as §1, §2, §3, §4, §5, §6, §7, §8, §9, §10, §11

M. phlei DSM 750 = test: MIC determination (broth microdilution); format: cell-based, Mycobacterium phlei; conditions: Mycolicibacterium phlei, DSM750; M. phlei DSM 750; read-out: MIC
Protocol: as §1, §2, §3, §4, §5, §6, §7, §8, §9, §10

T1 sequence (P0AES4 whole entry, one chain of several): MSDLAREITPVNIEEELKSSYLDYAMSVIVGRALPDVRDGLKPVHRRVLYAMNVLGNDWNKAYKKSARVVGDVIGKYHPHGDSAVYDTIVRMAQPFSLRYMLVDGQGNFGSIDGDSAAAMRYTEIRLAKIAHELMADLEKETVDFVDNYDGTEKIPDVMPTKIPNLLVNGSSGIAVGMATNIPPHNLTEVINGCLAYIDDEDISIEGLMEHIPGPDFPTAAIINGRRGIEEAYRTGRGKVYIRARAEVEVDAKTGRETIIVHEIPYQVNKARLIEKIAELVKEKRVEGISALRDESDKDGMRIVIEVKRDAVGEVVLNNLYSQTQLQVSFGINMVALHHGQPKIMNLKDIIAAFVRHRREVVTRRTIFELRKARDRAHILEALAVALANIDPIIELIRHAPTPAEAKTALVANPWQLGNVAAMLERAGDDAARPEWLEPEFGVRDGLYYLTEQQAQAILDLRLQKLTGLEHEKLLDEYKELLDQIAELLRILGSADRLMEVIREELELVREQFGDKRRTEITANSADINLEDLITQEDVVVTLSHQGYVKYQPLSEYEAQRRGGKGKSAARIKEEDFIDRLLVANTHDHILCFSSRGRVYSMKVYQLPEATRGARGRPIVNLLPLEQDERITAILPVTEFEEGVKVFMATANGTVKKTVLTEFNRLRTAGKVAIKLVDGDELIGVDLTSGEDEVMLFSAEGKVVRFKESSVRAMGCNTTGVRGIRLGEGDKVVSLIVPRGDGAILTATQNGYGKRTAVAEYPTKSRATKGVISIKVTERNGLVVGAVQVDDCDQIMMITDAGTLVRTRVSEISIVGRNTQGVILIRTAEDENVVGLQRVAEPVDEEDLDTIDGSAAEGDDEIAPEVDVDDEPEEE

COc1c(NC(=O)c2ccc(NC(=O)c3ccc(NC(=O)[C@H](CC#N)NC(=O)c4ccc(NC(=O)/C(C)=C/c5ccc(O)cc5)cc4)cc3)c(OC)c2O)ccc(C(=O)O)c1O [Compound 1, albicidin]
IC50 (DNA gyrase): 0.04 µM | MIC [1]: 2 µg/mL (≈ 2.37 µM) | MIC [2]: 0.25 µg/mL (≈ 0.297 µM) | MIC [3]: 0.25 µg/mL (≈ 0.297 µM) | MIC [4]: ≥ 128 µg/mL | MIC [5]: 1 µg/mL (≈ 1.19 µM) | MIC [6]: 4 µg/mL (≈ 4.75 µM) | MIC [7]: 16 µg/mL (≈ 19 µM) | MIC [8]: 2 µg/mL (≈ 2.37 µM) | MIC [9]: ≥ 128 µg/mL | MIC [10]: 0.063 µg/mL (≈ 0.0747 µM) | MIC [11]: 0.031 µg/mL (≈ 0.0368 µM) | half-life at 20 µM (in vitro; human): 60 min | half-life at 20 µM (in vitro; mouse): 30 min | solubility at 20 h (physchem; pH 7.4, aqueous with cosolvent or surfactant or cyclodextrin): 5.53 µg/mL (≈ 6.56 µM) | solubility kinetic at 20 h (physchem; pH 7.5, aqueous with cosolvent or surfactant or cyclodextrin): 5.53 µg/mL (≈ 6.56 µM) | MIC [12]: 2 µg/mL (≈ 2.37 µM) | MIC [13]: 0.125 µg/mL (≈ 0.148 µM)

COc1c(NC(=O)c2ccc(NC(=O)c3ccc(NC(=O)[C@H](Cc4c[nH]nn4)NC(=O)c4ccc(NC(=O)/C(C)=C/c5ccccn5)cc4)cc3)c(OC)c2O)ccc(C(=O)O)c1O [Compound 3]
MIC (M. luteus DSM1790): 32 µg/mL (≈ 36.8 µM) | E. coli gyrase inhibition (E. coli DNA gyrase): ↓ | MIC [14]: 8 µg/mL | MIC (S. Typhimurium TA100): 0.125 µg/mL (≈ 0.144 µM) | MIC (B. subtilis DSM 10): 4 µg/mL (≈ 4.6 µM) | MIC (E. coli BW25113): 0.5 µg/mL (≈ 0.575 µM) | MIC (E. coli DSM 1116; E. coli DSM 1116, read-out: MIC): 0.25 µg/mL (≈ 0.287 µM) | MIC (M. phlei DSM 750): 64 µg/mL (≈ 73.6 µM)

COc1c(NC(=O)c2ccc(NC(=O)c3ccc(NC(=O)[C@H](Cc4c[nH]nn4)NC(=O)c4ccc(NC(=O)/C(C)=C/c5cccnc5)cc4)cc3)c(OC)c2O)ccc(C(=O)O)c1O [Compound 4]
MIC (M. luteus DSM1790): 32 µg/mL (≈ 36.8 µM) | E. coli gyrase inhibition (E. coli DNA gyrase): ↓ | MIC [14]: 8 µg/mL | MIC (S. Typhimurium TA100): 0.125 µg/mL (≈ 0.144 µM) | MIC (B. subtilis DSM 10): 2 µg/mL (≈ 2.3 µM) | MIC (E. coli BW25113): 0.5 µg/mL (≈ 0.575 µM) | MIC (E. coli DSM 1116): 0.125 µg/mL (≈ 0.144 µM) | MIC (M. phlei DSM 750): 32 µg/mL (≈ 36.8 µM)
